Data taken from US20250154105A1, “POLYCYCLIC COMPOUND AND USE THEREOF” (TYK MEDICINES, INC., priority 2021, published 2025).

tested on: YAP-TEAD; test: YAP-TEAD inhibitor activity by Nano luciferase method (8xGTiiC-nLuc reporter in 293T cells); type: cell-based; conditions: Homo sapiens, HEK-293T, 48 hours incubation, read-out: Nano-luciferase detection (IC50)
How it was run: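 293T cells transiently transfected with pGL3B-8xGTiiC-nLuc-CMV-fLuc, seeded 2000 cells/well, then treated 48 h at 37 °C with compounds in 1:3.16 dilution series (top 10,000 nM). Nano luciferase signal read after cell lysis; IC50 from percent of 0 nM control.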

IC50, ≤ 1 µM:
CNS(=O)(=O)c1ccc2c(c1)c1cn(C)nc1c(=O)n2-c1ccc(C(F)(F)F)cc1 [Example T-32]
C[C@H](NC(=O)c1ccc2c(c1)c1nn(C)cc1c(=O)n2-c1ccc(C(F)(F)F)cc1)c1ccccn1 [Example T-105]
C[C@H](NC(=O)c1ccc2c(c1)c1cnccc1c(=O)n2-c1ccc(C(F)(F)F)cc1)c1ccccn1 [Example T-253]
C[C@H](NC(=O)c1ccc2c(c1)c1ccccc1c(=O)n2-c1ccc(C(F)(F)F)cc1)c1ccccn1 [Example T-272]
Cc1cc(=O)n(-c2ccc(C(F)(F)F)cc2)c2ccc(C(=O)N[C@@H](C)c3ccccn3)cc12 [Example T-277]
